Measured values taken from BindingDB's records for patent US11091471 (Hoffmann-La Roche, 2021).
pKi: −log10 of the molar value.

Molecular target: Gamma-aminobutyric acid receptor subunit gamma-2 / Gamma-aminobutyric acid receptor subunit alpha-5 (Homo sapiens, UniProt P18507+P31644)
Assay: Electrophysiology
Experimental: Electrophysiological experiments were performed on days 3 to 5 after the micro-injection of mRNA. During the experiment the oocytes were constantly superfused by a solution containing (in mM) NaCl 90, KCl 1, HEPES 5, MgCl2 1, CaCl2 1 (pH 7.4). Oocytes were impaled by two glass microelectrodes (resistance: 0.4 MΩ) which were filled with a solution containing KCl 1M+K-acetate 1.5 M and voltage-clamped to −80 mV. The recordings were performed at room temperature using the Roboocyte two-electrode voltage clamp system (Multichannelsystem). After an initial equilibration period of 1.5 min GABA was added for 1.5 min at a concentration evoking approximately 20% of a maximal current response (EC20). After another rest interval of 2.5 min GABA was again added evoking a response of similar amplitude and shape. 0.5 min after the onset of this second GABA application the test compound, at a concentration corresponding to approximatively 30 fold its Ki, was added while GABA was still present. Current traces were recorded at a digitization rate of 10 Hz during and shortly before and after the GABA application.

Gamma-aminobutyric acid receptor subunit gamma-2 / Gamma-aminobutyric acid receptor subunit alpha-5, sequence (P18507 40-475 limits assumed): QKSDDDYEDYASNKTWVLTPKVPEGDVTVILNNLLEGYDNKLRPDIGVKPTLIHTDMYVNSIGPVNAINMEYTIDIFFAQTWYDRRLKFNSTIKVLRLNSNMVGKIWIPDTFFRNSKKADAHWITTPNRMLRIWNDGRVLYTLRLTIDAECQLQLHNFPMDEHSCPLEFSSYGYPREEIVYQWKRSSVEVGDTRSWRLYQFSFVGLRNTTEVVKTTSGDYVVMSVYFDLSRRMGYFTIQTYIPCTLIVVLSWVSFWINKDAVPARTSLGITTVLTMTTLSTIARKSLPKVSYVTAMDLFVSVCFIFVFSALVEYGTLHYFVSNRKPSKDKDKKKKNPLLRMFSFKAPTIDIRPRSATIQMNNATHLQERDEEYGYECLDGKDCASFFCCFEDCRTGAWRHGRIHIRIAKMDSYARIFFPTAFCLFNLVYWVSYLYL
Gamma-aminobutyric acid receptor subunit gamma-2 / Gamma-aminobutyric acid receptor subunit alpha-5, sequence (P31644 32-462 limits assumed): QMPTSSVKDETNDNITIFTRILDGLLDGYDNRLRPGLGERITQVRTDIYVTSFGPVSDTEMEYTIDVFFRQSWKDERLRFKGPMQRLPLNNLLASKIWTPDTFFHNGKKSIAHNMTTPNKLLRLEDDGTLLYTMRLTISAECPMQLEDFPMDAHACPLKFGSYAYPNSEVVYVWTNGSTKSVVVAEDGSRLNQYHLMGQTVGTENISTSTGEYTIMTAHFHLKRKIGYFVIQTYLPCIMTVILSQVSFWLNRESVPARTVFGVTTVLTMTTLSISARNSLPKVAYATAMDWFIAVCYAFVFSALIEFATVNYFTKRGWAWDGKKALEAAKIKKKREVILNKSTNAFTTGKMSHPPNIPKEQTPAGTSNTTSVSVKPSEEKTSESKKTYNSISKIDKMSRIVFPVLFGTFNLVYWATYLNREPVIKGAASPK

## Cc1onc(-c2ccc(Cl)nc2)c1COc1ccc(C(=O)N[C@H]2CCOC2)nn1 [US11091471, Example 160]
  pKi: 8.03
